Series [1] concerns the target T1, cloned human 5-HT6 receptor (Homo sapiens, UniProt P50406).
T1 construct: host or cells: HeLa cells (G-418 selected); membranes prepared from them
Kind of series: 5-HT6 receptor binding assay ([3H]-LSD, SPA). The note with it: membranes of Hela cells containing cloned human 5-HT6 receptor; [3H]-LSD radioligand; Ki from estimated IC50 by Cheng-Prusoff. As for the experimental part:
Growth of Cells and Membrane Preparation
Hela cells containing the cloned human 5-HT6 receptor were acquired from Dr. David R. Sibley's laboratory in National Institute of Health (see Sibley, D. R., J. Neurochemistr, 66, 47-56, 1996). Cells were grown in high glucose Dulbecco's modified Eagle's medium, supplemented with L-glutamine, 0.5% sodium pyruvate, 0.3% penicillin-streptomycin, 0.025% G-418 and 5% Gibco fetal bovine serum and then were harvested, when confluent, in cold phosphate buffered saline.
Harvested intact cells were washed once in cold phosphate-buffered saline. The cells were pelleted and resuspended in 100 ml of cold 50 mM Tris, 5 mM EDTA and 5 mM EGTA, pH 7.4. Homogenization was with a Vir Tishear generator, 4 cycles for 30 seconds each at setting 50. The homogenized cells were centrifuged at […] for 10 minutes and the supernatant was removed. The pellet was resuspended in 100 ml of the above buffer and rehomogenized for 2 cycles. The rehomogenized cells were then centrifuged at […] for 10 minutes and the supernatant was removed. The combined supernatant (200 ml) was centrifuged at 23,000 RPM (80,000×g) for 1 hour in a Beckman Rotor (42.1 Ti). […]
The radioligand binding assay used [^3H]-lysergic acid diethylamide (LSD). […] The plates were then loaded into counting cassettes and counted in a Wallac MicroBeta Trilux scintillation counter. […]

The text below walks through data of patent US6932961B1, “Oxazinocarbazoles for the treatment of CNS diseases” (Pharmacia & Upjohn Company, priority 2002, dated 2005).

Structures are written as SMILES. Structures can show the parent of a compound that is named as a salt.

T1 sequence (P50406 whole entry): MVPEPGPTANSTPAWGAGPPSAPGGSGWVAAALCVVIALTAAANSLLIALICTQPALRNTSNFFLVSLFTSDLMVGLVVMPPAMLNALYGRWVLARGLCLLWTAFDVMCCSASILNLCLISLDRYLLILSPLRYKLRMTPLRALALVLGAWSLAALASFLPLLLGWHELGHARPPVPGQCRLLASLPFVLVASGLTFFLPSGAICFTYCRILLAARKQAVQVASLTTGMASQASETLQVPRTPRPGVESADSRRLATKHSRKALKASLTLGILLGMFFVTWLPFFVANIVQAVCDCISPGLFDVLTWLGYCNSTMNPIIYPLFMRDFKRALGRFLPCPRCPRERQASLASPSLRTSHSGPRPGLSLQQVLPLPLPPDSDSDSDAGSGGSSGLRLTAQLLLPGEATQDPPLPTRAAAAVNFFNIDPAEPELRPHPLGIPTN

As to `NCCOc1cccc2c1c1cccc3c1n2[C@H](c1ccccc1)CO3` (as salt: sulfonic acid salt) [Example 2, (R)−)-[(1-Phenyl-1,2-dihydro[1,4]oxazino[2,3,4-jk]carbazol-7-yl)oxy]ethanamine and its methanesulfonic acid salt], the melting point (commonly the temperature of the solid-liquid transition) was 236 °C.

As for `NCCOc1cccc2c1c1cccc3c1n2[C@H](c1ccccc1)CO3` [Example 2, (R)−)-[(1-Phenyl-1,2-dihydro[1,4]oxazino[2,3,4-jk]carbazol-7-yl)oxy]ethanamine and its methanesulfonic acid salt], in series [1], the Ki (as a rule, a measure of affinity in units of concentration, obtained from inhibition or displacement) was 1.8 nM.

As to `CN(C)CCOc1cccc2c1c1cccc3c1n2C(c1ccccc1)CO3` (centres unmarked) [Example 18, N,N-dimethyl-2-[(1-phenyl-1,2-dihydro[1,4]oxazino[2,3,4-jk]carbazol-7-yl)oxy]-1-ethanamine], the melting point was 117 to 118 °C.

`CN1CCN(CCOc2cccc3c2c2cccc4c2n3C(c2ccccc2)CO4)CC1` (centres unmarked) [Example 14, 2-(4-Methyl-1-piperazinyl)ethyl 1-phenyl-1,2-dihydro[1,4]oxazino[2,3,4-jk]carbazol-7-yl ether] had a melting point of 57 °C.

Take `c1ccc(C2COc3cccc4c5c(OCCN6CCNCC6)cccc5n2c34)cc1` (centres unmarked) [Example 13, 1-Phenyl-1,2-dihydro[1,4]oxazino[2,3,4-jk]carbazol-7-yl 2-(1-piperazinyl)ethyl ether]: the melting point amounted to 72 °C.

Consider `CCNCCOc1cccc2c1c1cccc3c1n2C(c1ccccc1)CO3.O=C(O)/C=C\C(=O)O` (centres unmarked) [Example 6, N-Ethyl-2-[(1-phenyl-1,2-dihydro[1,4]oxazino[2,3,4-jk]carbazol-7-yl)oxy]-ethanamine and its maleic acid salt], for which the melting point is 105 °C.

`CCN(CC)CCOc1cccc2c1c1cccc3c1n2C(c1ccccc1)CO3` (centres unmarked) (as salt: maleic acid salt) [Example 3, N,N-Diethyl-2-[(1-phenyl-1,2-dihydro[1,4]oxazino[2,3,4-jk]carbazol-7-yl)oxy]-1-ethanamine and its maleic acid salt] displayed a melting point of 105 to 107 °C.

Consider `CC(C)NCCOc1cccc2c1c1cccc3c1n2C(c1ccccc1)CO3` (centres unmarked) [Example 5, N-isopropyl-N-{2-[(1-phenyl-1,2-dihydro[1,4]oxazino[2,3,4-jk]carbazol-7-yl)oxy]ethyl}amine and its maleic acid salt], for which the Ki in series [1] was 7.8 nM.
